Measurements taken from the supplement of paper PMC10307832.

How the values were obtained:
Assay in all cases: relative viability (nuclei count vs DMSO), 5 days (fraction); higher = more cells survive
[1] = compound: CN1CCN(CC1)C2=CC(=C(C=C2)NC3=NC(=C(S3)C(=O)C4=C(C=CC=C4Cl)Cl)N)OC [XMD14-99] + Nc1ncn([C@H]2C[C@H](O)[C@@H](CO)O2)c(=O)n1 [Decitabine] (partner 2 µM)
Summary of the method: (§1)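 Relative viability was taken as the ratio of nuclei in treated wells to nuclei in vehicle wells. Lung cancer cell lines in 1536-well plates received compounds by pin tool one day after seeding, either one drug alone or a fixed anchor-drug dose plus five library-drug doses (not always all listed) in √10 steps. Nuclei were counted on 4× images after 5 days of treatment, and values are medians of duplicate plates.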

[2] = compound: CN1CCN(CC1)C2=CC(=C(C=C2)NC3=NC(=C(S3)C(=O)C4=C(C=CC=C4Cl)Cl)N)OC [XMD14-99] + O=C(CCCCCCC(=O)Nc1ccccc1)NO [Vorinostat] (partner 1 µM)
Summary of the method: as §1

[3] = compound: N[C@@H]1CCCN(c2c(/C=C3\SC(=O)NC3=O)cccc2-c2ccccc2)C1 [AZD1208] + CC1(C)CCC(c2ccc(Cl)cc2)=C(CN2CCN(c3ccc(C(=O)NS(=O)(=O)c4ccc(N[C@H](CCN5CCOCC5)CSc5ccccc5)c(S(=O)(=O)C(F)(F)F)c4)cc3)CC2)C1 [Navitoclax] (partner 0.5 µM)
Summary of the method: as §1

[4] = compound: CN1CCN(CC1)C2=CC(=C(C=C2)NC3=NC(=C(S3)C(=O)C4=C(C=CC=C4Cl)Cl)N)OC [XMD14-99] + COc1cc2c(Oc3ccc(NC(=O)C4(C(=O)Nc5ccc(F)cc5)CC4)cc3F)ccnc2cc1OCCCN1CCOCC1 [Foretinib] (partner 0.25 µM)
Summary of the method: as §1

Cell Line | relative viability ([1]; first compound 0.08 µM) | relative viability ([1]; first compound 0.8 µM) | relative viability ([1]; first compound 2.53 µM) | relative viability ([1]; first compound 8 µM) | relative viability ([2]; first compound 0.08 µM) | relative viability ([2]; first compound 0.8 µM) | relative viability ([2]; first compound 2.53 µM) | relative viability ([2]; first compound 8 µM) | relative viability ([3]; first compound 0.08 µM) | relative viability ([3]; first compound 0.253 µM) | relative viability ([3]; first compound 0.8 µM) | relative viability ([3]; first compound 2.53 µM) | relative viability ([3]; first compound 8 µM) | relative viability ([4]; first compound 0.08 µM) | relative viability ([4]; first compound 0.8 µM) | relative viability ([4]; first compound 2.53 µM) | relative viability ([4]; first compound 8 µM)
201T | 0.852 | 0.833 | 0.833 | 0.741 | 0.962 | 0.93 | 0.948 | 0.815 | 1.24 | 1.23 | 1.25 | 1.24 | 1.31 | 1.05 | 1.1 | 1.01 | 0.956
A549 | 0.284 | 0.271 | 0.203 | 0.229 | – | – | – | – | 1.24 | 1.16 | 1.12 | 1.18 | 1.1 | 0.899 | 0.916 | 0.787 | 0.693
A-427 | 0.537 | 0.545 | 0.541 | 0.521 | 0.882 | 0.832 | 0.689 | 0.612 | 0.936 | 0.95 | 0.892 | 0.876 | 0.863 | 1.04 | 0.988 | 0.814 | 0.712
ABC-1 | 1.1 | 1.05 | 0.679 | 0.935 | 1.13 | 0.996 | 1.01 | 0.646 | – | – | – | – | – | 1.14 | 0.883 | 0.957 | 0.937
BEN | 0.853 | 0.701 | 0.707 | 0.558 | 0.591 | 0.547 | 0.595 | 0.522 | 0.0677 | 0.0668 | 0.0589 | 0.0576 | 0.125 | 0.662 | 0.695 | 0.705 | 0.678
CAL-12T | – | – | – | – | 0.685 | 0.894 | 0.627 | 0.613 | 1.28 | 1.39 | 1.08 | 1.28 | 0.956 | 1.09 | 1.06 | 0.876 | 1.02
COR-L23 | 0.467 | 0.428 | 0.41 | 0.382 | 0.409 | 0.415 | 0.304 | 0.181 | 0.948 | 1.07 | 0.931 | 1.05 | 0.816 | 0.901 | 0.962 | 0.812 | 0.572
COR-L 105 | 0.718 | 0.651 | 0.606 | 0.604 | 0.833 | 0.944 | 0.662 | 0.663 | 0.679 | 0.745 | 0.555 | 1.13 | 0.682 | 1.06 | 1.25 | 0.991 | 0.734
Calu-6 | – | – | – | – | – | – | – | – | 0.737 | 0.916 | 0.906 | 0.833 | 0.822 | 0.897 | 0.905 | 0.843 | 0.593
ChaGo-K-1 | 0.52 | 0.531 | 0.5 | 0.481 | 0.741 | 0.73 | 0.68 | 0.719 | 1.16 | 1.05 | 1.09 | 0.834 | 0.785 | 0.82 | 0.939 | 0.88 | 0.913
EBC-1 | – | – | – | – | – | – | – | – | 0.317 | 0.326 | 0.297 | 0.334 | 0.298 | 0.113 | 0.11 | 0.112 | 0.0979
EKVX | 0.274 | 0.322 | 0.316 | 0.239 | 0.701 | 0.714 | 0.655 | 0.493 | 0.931 | 0.995 | 0.754 | 0.933 | 0.944 | 0.768 | 0.888 | 0.876 | 0.662
EMC-BAC-2 | 0.973 | 0.898 | 0.838 | 0.802 | 0.493 | 0.585 | 0.447 | 0.199 | 1.17 | 1.39 | 1.14 | 1.17 | 1.07 | 1.05 | 0.978 | 0.854 | 0.859
EPLC-272H | 0.386 | 0.41 | 0.353 | 0.314 | 0.476 | 0.399 | 0.401 | 0.419 | 1.08 | 1.24 | 1.08 | 1.04 | 0.897 | 0.748 | 0.764 | 0.684 | 0.444
H3255 | 0.584 | 0.674 | 0.546 | 0.513 | 0.756 | 0.74 | 0.717 | 0.591 | 0.511 | 0.546 | 0.455 | 0.462 | 0.472 | 0.956 | 0.9 | 0.737 | 0.709
HARA | 0.565 | 0.505 | 0.537 | 0.403 | 0.537 | 0.499 | 0.369 | 0.397 | 1.13 | 1.16 | 1.2 | 1.03 | 1.15 | 0.791 | 0.793 | 0.748 | 0.757
HCC-15 | 0.668 | 0.605 | 0.599 | 0.415 | 0.839 | 0.825 | 0.728 | 0.587 | 0.632 | 0.725 | 0.55 | 0.642 | 0.612 | 1.01 | 1.01 | 0.9 | 0.693
